Measurements published in patent publication US8530472B2, “Ethynyl derivatives” (Hoffmann-La Roche Inc., priority 2011, dated 2013).

Target: T1, human mGlu5a receptor (Homo sapiens, UniProt P41594)
T1 construct: expressed in transfected cells
Test: Intracellular Ca2+ mobilization assay (mGlu5 PAM)
Format: cell-based
Details: for Emax: HEK293, maximal response in % of the maximal stimulatory effect obtained with saturating concentrations of L-glutamate, HEK-293 human mGlu5a cells, read-out: Eff. (%); for EC50: HEK-293 cells stably transfected with human mGlu5a receptor, L-glutamate added at EC20 (typically around 80 μM) after 10-30 min pre-incubation with test compound, read-out: EC50 (nM) mGlu5PAM
Protocol: A monoclonal HEK-293 cell line stably transfected with a cDNA encoding for the human mGlu5a receptor was generated; for the work with mGlu5 Positive Allosteric Modulators (PAMs), a cell line with low receptor expression levels and low constitutive receptor activity was selected to allow the differentiation of agonistic versus PAM activity. Cells were cultured according to standard protocols (Freshney, 2000) in Dulbecco's Modified Eagle Medium with high glucose supplemented with 1 mM glutamine, 10% (vol/vol) heat-inactivated bovine calf serum, Penicillin/Streptomycin, 50 μg/ml hygromycin and 15 μg/ml blasticidin (all cell culture reagents and antibiotics from Invitrogen, Basel, Switzerland).
About 24 hrs before an experiment, 5×10^4 cells/well were seeded in poly-D-lysine coated, black/clear-bottomed 96-well plates. The cells were loaded with 2.5 μM Fluo-4AM in loading buffer (1×HBSS, 20 mM HEPES) for 1 hr at 37° C. and washed five times with loading buffer. The cells were transferred into a Functional Drug Screening System 7000 (Hamamatsu, Paris, France), and 11 half logarithmic serial dilutions of test compound at 37° C. were added and the cells were incubated for 10-30 min. with on-line recording of fluorescence. Following this pre-incubation step, the agonist L-glutamate was added to the cells at a concentration corresponding to EC20 (typically around 80 μM) with on-line recording of fluorescence; in order to account for day-to-day variations in the responsiveness of cells, the EC20 of glutamate was determined immediately ahead of each experiment by recording of a full dose-response curve of glutamate.
Responses were measured as peak increase in fluorescence minus basal (i.e. fluorescence without addition of L-glutamate), normalized to the maximal stimulatory effect obtained with saturating concentrations of L-glutamate. Graphs were plotted with the % maximal stimulatory using XLfit, a curve fitting program that iteratively plots the data using Levenburg Marquardt algorithm. The single site competition analysis equation used was y=A+((B−A)/(1+((x/C)D))), where y is the % maximal stimulatory effect, A is the minimum y, B is the maximum y, C is the EC50, x is the log 10 of the concentration of the competing compound and D is the slope of the curve (the Hill Coefficient). From these curves the EC50 (concentration at which half maximal stimulation was achieved), the Hill coefficient as well as the maximal response in % of the maximal stimulatory effect obtained with saturating concentrations of L-glutamate were calculated.
A depression of the signal observed after addition of the EC20 concentration of L-glutamate was indicative of an inhibitory activity of the test compound.

T1 sequence (P41594 21-1180 isoform P41594-2 limits assumed): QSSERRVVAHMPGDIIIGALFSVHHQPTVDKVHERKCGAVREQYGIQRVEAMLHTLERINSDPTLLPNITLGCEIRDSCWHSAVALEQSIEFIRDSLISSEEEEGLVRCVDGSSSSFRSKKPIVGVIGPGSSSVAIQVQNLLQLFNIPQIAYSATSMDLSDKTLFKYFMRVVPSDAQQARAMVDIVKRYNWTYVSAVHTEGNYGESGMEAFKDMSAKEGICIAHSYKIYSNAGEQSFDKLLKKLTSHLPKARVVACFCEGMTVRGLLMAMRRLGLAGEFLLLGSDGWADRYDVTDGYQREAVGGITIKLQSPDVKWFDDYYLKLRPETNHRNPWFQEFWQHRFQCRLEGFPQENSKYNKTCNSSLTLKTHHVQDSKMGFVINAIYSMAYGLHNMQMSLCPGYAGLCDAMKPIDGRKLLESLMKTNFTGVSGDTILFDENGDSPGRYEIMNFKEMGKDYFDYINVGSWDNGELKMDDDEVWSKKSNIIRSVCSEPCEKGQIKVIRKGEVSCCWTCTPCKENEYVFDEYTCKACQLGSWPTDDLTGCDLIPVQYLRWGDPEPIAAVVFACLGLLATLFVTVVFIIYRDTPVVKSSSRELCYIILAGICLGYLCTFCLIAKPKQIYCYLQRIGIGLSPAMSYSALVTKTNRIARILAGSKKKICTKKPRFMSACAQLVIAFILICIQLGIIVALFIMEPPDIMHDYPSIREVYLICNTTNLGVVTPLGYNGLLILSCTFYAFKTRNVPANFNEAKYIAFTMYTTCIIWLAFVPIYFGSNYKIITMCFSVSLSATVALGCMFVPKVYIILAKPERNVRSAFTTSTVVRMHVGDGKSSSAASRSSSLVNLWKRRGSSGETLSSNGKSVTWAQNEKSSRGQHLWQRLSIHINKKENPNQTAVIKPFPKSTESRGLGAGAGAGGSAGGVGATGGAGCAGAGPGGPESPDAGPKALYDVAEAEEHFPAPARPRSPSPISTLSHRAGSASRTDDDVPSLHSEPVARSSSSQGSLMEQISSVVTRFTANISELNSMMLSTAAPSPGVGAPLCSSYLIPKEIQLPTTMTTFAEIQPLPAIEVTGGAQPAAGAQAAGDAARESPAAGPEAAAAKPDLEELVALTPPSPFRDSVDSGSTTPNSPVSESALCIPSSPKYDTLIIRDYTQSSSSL

| SMILES | Emax | EC50 |
| --- | --- | --- |
| CC(C)(C)C(=O)Nc1ccc(C#Cc2ccccc2)cn1 [Example 1, 2,2-Dimethyl-N-(5-phenylethynyl-pyridin-2-yl)-propionamide] | 72% | 19 nM |
| CSCC(=O)Nc1ccc(C#Cc2ccccc2)cn1 [Example 6, 2-Methylsulfanyl-N-(5-phenylethynyl-pyridin-2-yl)-acetamide] | 47% | 18 nM |
| CCCCC(=O)Nc1ccc(C#Cc2ccccc2)cn1 [Example 3, Pentanoic acid (5-phenylethynyl-pyridin-2-yl)-amide] | 84% | 48 nM |
| COC(C)(C)C(=O)Nc1ccc(C#Cc2ccccc2)cn1 [Example 12, 2-Methoxy-2-methyl-N-(5-phenylethynyl-pyridin-2-yl)-propionamide] | 68% | 77 nM |
| CCCC(=O)Nc1ccc(C#Cc2ccccc2)cn1 [Example 2, N-(5-Phenylethynyl-pyridin-2-yl)-butyramide] | 52% | 70 nM |
| CC(C)(C(=O)Nc1ccc(C#Cc2cccc(Cl)c2)cn1)C(F)(F)F [Example 15, N-[5-(3-Chloro-phenylethynyl)-pyridin-2-yl]-3,3,3-trifluoro-2,2-dimethyl-propionamide] | 46% | 19 nM |
| COCC(=O)Nc1ccc(C#Cc2ccccc2)cn1 [Example 10, 2-Methoxy-N-(5-phenylethynyl-pyridin-2-yl)-acetamide] | 43% | 49 nM |
| CC(C)(C)C(=O)Nc1ccc(C#Cc2cccc(Cl)c2)nn1 [Example 16, N-[6-(3-Chloro-phenylethynyl)-pyridazin-3-yl]-2,2-dimethyl-propionamide] | 45% | 7 nM |
| CC(C)CC(=O)Nc1ccc(C#Cc2ccccc2)cn1 [Example 4, 3-Methyl-N-(5-phenylethynyl-pyridin-2-yl)-butyramide] | 83% | 71 nM |
| CC(C)(C)C(=O)Nc1ncc(C#Cc2ccccc2)cn1 [Example 7, 2,2-Dimethyl-N-(5-phenylethynyl-pyrimidin-2-yl)-propionamide] | 59% | 56 nM |
| CC(C)(C)C(=O)Nc1ccc(C#Cc2ccccc2)nn1 [Example 9, 2,2-Dimethyl-N-(6-phenylethynyl-pyridazin-3-yl)-propionamide] | 73% | 6 nM |
| COC(C)(C)C(=O)Nc1ccc(C#Cc2cc(F)ccc2F)cn1 [Example 14, N-[5-(2,5-Difluoro-phenylethynyl)-pyridin-2-yl]-2-methoxy-2-methyl-propionamide] | 47% | 94 nM |
| CC(C)(C)C(=O)Nc1ccc(C#Cc2cccc(F)c2)cn1 [Example 11, N-[5-(3-Fluoro-phenylethynyl)-pyridin-2-yl]-2,2-dimethyl-propionamide] | 44% | 15 nM |
| COC(C)(C)C(=O)Nc1ccc(C#Cc2cccc(F)c2)cn1 [Example 13, N-[5-(3-Fluoro-phenylethynyl)-pyridin-2-yl]-2-methoxy-2-methyl-propionamide] | 54% | 85 nM |
| CCCC(C)C(=O)Nc1ccc(C#Cc2ccccc2)cn1 (racemic) [Example 5, (RS)-2-Methyl-pentanoic acid (5-phenylethynyl-pyridin-2-yl)-amide] | 75% | 48 nM |
| CN(C(=O)C(C)(C)C)c1ncc(C#Cc2ccccc2)cn1 [Example 8, 2,2,N-Trimethyl-N-(5-phenylethynyl-pyrimidin-2-yl)-propionamide] | 74% | 52 nM |
